B1: mG#101: recombinant mouse first Rab protein, SEQ ID NO: 1 (protein)
chain: MLLGDSGVGKTCFLIQFKDGAFLSGTFIATVGIDFRNKVVTVDGXRVKLQIWDTAGQERFRSVTHAYYRDAQALLLLYDITNKSSFDNIRAWLTEIHEYAQRDVVIMLLGNKADXSSERVIRSEDGETLAREYGVPFXETSAKTGMNVELAFLAIAKELKYRAGXQXDEPSFQIRDYVESQKKRSSCCSFV
modifications: Mus musculus or Homo sapiens; (45) Ala or Val.
B2: mG#102: recombinant mouse second Rab protein, SEQ ID NO: 4 (protein)
chain: MQTPHKEHLYKLLVIGDLGVGKTSIIKRYVHQNFSSHYRATIGVDFALKVLHWDPETVVRLQLWDIAGQERFGNMTRVYYREAMGAFIVFDVTRPATFEAVAKWKNDLDSKLXLPNGKPVSVVLLANKCDQGKDVLMNNGLKMDQFCKEHGFVGWFETSAKENINIDEASRCLVKHILANECDLXESIEPDXVKPHLTSXKVXSCSGCAKS
modifications: Mus musculus or Homo sapiens; (113) Thr or Ser.

Assays:
[1] = system: interaction between mG#102 and mA#10283; assay: Two-hybrid recombinant yeast #102 strain growth in histidine defective medium; type: cell-based, S. cerevisiae; conditions: for specific suppression of #102 strain growth (in words): compared with VT strain; for Suppression (% control) of growth of yeast strain, #102 strain: turbidity 590 nm, 18-20 hr
Procedure: (§1) Two expression vectors respectively incorporating mG#102 in pAS2-1 vector and mA#10283 in pACT2 vector were introduced into S. cerevisiae CG1945 strain to give a recombinant yeast #102 strain (see Example 3). As a control, recombinant yeast VT strain into which plasmid for positive control (pVA3-1, pTD1-1) of MATCHMAKER Two-Hybrid System 2 had been introduced was prepared. The culture media of #102 strain and VT strain that reached confluent by shake culture overnight at 30° C. in an SD medium supplemented with histidine were diluted 200-fold with a fresh histidine defective SD medium (containing 1 mM 3-AT) and dispensed to a 96 well plate by 0.09 ml/well. A PBS solution containing a compound whose effect is desired to be examined was added to each well, PBS was added to the well of 100% control, and 1M 3-AT-containing PBS solution was added to the well of 0% control respectively in a volume of 0.01 ml/well and mixed by a plate shaker MicroMixer E-36 (manufactured by TAITEC). Then, after static culture at 30° C. for 18-20 hr, culture media were suspended in a plate shaker, and turbidity (absorbance at 590 nm) was measured with a 96 well plate spectrophotometer Multiskan BICHROMATIC (manufactured by Labsystems) The data of the turbidity measured were evaluated on conversion to % control based on the turbidity data of 100% control and 0% control. When a common effect appears between the #102 strain and the VT strain, it was considered a nonspecific effect on the two-hybrid system rather than an effect on the interaction between mG#102 and mA#10283.
(§2) Using the system shown in Example 7, 0.09 ml each of #102 strain yeast or VT strain yeast (control) was placed in each well of a 96 well plate, and a PBS solution containing a particular compound which is unknown as to its effect on the interaction between mG#102 and mA#10283 was added by 0.01 ml, which was followed by culture at 30° C. for 18-20 hr. Then, the culture medium was suspended in a plate shaker and the turbidity (absorbance at 590 nm) was measured with a 96 well plate absorbance meter. The turbidity of the well to which PBS solution without the compound was added was taken as 100% control and the turbidity of the well to which PBS solution containing 3-AT (final concentration 100 mM) instead of the compound was added was taken as 0% control, and the effect of the compound was evaluated by conversion to percentage.

[2] = system: VT strain; assay: Two-hybrid positive control recombinant yeast VT strain growth (nonspecific effect control); type: cell-based, S. cerevisiae; conditions: turbidity 590 nm, 18-20 hr
Procedure: as §1, §2

[3] = system: mouse bone marrow-derived mast cells (BMMC); assay: IgE/DNP-HSA antigen-induced degranulation of BMMC (hexosaminidase release); type: cell-based; conditions: for Suppression (% control) of degranulation of mast cell: fluorescence of control group without compound = 100%
Procedure: BMMC prepared by the method shown in Example 1 was suspended in 10% FBS-containing RPMI at a concentration of 3×10^6/ml. To this BMMC was added a mouse monoclonal anti-DNP IgE antibody (manufactured by YAMASA) at 3 μg/ml, and the mixture was stood at room temperature for 30 min. Then, BMMC treated with an IgE antibody was washed with buffer A (133 mM NaCl, 5 mM KCl, 0.9 mM NaH2PO4, 8 mM glucose, 1 mg/ml BSA, 0.01 mM CaCl2, 20 mM HEPES, pH 7.4) and suspended in buffer A containing 1 mM CaCl2 at a concentration of 3×10^6/ml. This BMMC suspension (0.1 ml/well) was added in a 96 well multiplate and a solution of the compound to be examined (0.05 ml/well) and a DNP-HSA (manufactured by Sigma) solution (40 ng/ml, 0.05 ml/well) as an antigen were added. After standing at room temperature for 30 min, the mixture was centrifuged at 1000 rpm for 5 min and the supernatant was recovered for the 96 well multiplate by 0.05 ml/well. To this supernatant was added a 4-methylumbelliferyl-2-acetamide-2-deoxy-β-D-glucopyranoside (manufactured by Funakoshi Co., Ltd., substrate of hexosaminidase) solution (1 mM; in 0.2 M citrate buffer (pH 4.5)) at 0.05 ml/well. After standing at 37° C. for 90 min, 1M Tris solution (0.15 ml) was added to stop the reaction, and the amount of fluorescence in each well was measured by fluoroscan (manufactured by Labo Systems). The suppressive effect of the compound on the degranulation of BMMC was calculated based on the amount of fluorescence in the control group free of addition of the compound as 100%. As a control compound, tranilast was used.

[4] = system: VT strain; assay: Two-hybrid positive control recombinant yeast VT strain growth (nonspecific effect control); type: cell-based, S. cerevisiae
[5] = system: interaction between mG#102 and mA#10283; assay: Two-hybrid recombinant yeast #102 strain growth in histidine defective medium; type: cell-based, S. cerevisiae; conditions: histidine defective SD medium
[6] = system: BMMC; assay: BMMC digitonin degranulation system (histamine release); type: cell-based, mouse; conditions: protein added to digitonin-permeabilised BMMC, CaCl2 stimulation, histamine RIA
Procedure: The recombinant protein was added to a BMMC digitonin degranulation system to examine the effect. BMMC was washed twice with a buffer having the following composition to give a suspension at 2×10^6 cells/ml and dispensed to a 96-well U-bottom plate by 0.05 ml/well. Then, mG#101 or mG#102 recombinant protein (0.05 ml/well) was added. Furthermore, 4.5 μM digitonin was added by 0.05 ml/well and the plate was stood at room temperature for 5 min. Thereafter 4 mM CaCl2 was added by 0.05 ml/well and the plate was stood at room temperature for 10 min. After standing, the concentration of histamine liberated in the supernatant was determined by a histamine RIA kit (Eiken Chemical Co., Ltd.). buffer composition:
The recombinant protein was added to the digitonin degranulation system (see Example 5) and the effect was examined.

[7] = compound concentration 0.3 μg/ml
[8] = compound concentration 10 μg/ml
[9] = compound concentration 30 μg/ml

| Molecule | specific suppression of #102 strain growth (in words) [1] | Suppression (% control) of growth of yeast strain, #102 strain ([1]; compound concentration 1 μg/ml) | Suppression (% control) of growth of yeast strain, #102 strain ([1]; compound concentration 3 μg/ml) | Suppression (% control) of growth of yeast strain, #102 strain [1, 8] | Suppression (% control) of growth of yeast strain, VT strain ([2]; compound concentration 1 μg/ml) | Suppression (% control) of growth of yeast strain, VT strain ([2]; compound concentration 3 μg/ml) | Suppression (% control) of growth of yeast strain, VT strain [2, 8] | Suppression (% control) of degranulation of mast cell ([3]; concentration 1 μg/ml) | Suppression (% control) of degranulation of mast cell ([3]; concentration 3 μg/ml) | Suppression (% control) of degranulation of mast cell ([3]; concentration 10 μg/ml) | Suppression (% control) of degranulation of mast cell ([3]; concentration 30 μg/ml) | Suppression (% control) of degranulation of mast cell ([3]; concentration 100 μg/ml) | effect of recombinant protein on degranulation (in words) [6] | other results |
| --- | --- | --- | --- | --- | --- | --- | --- | --- | --- | --- | --- | --- | --- | --- |
| CC(C)=NNc1nc(-c2ccc(-c3ccccc3)cc2)cs1 [Formula [III], acetone-4-(4-phenyl)phenyl-1,3-thiazol-2-yl-hydrazone] | specifically suppressed #1022 strain in a dose-dependent manner | 57 % control | 4 % control | 1 % control | 85 % control | 77 % control | 63 % control | 102 % control | 87 % control | 39 % control | 20 % control | 6 % control |  | Suppression (% control) of growth of yeast strain, #102 strain [1, 7]: 99 % control; Suppression (% control) of growth of yeast strain, VT strain [2, 7]: 99 % control; suppression of degranulation of mast cells (in words) [3]: suppressed degranulation of mast cells in a dose-dependent manner |
| COc1ccc(/C=C/C(=O)Nc2ccccc2C(=O)O)cc1OC [tranilast, reference compound] |  |  |  |  |  |  |  | 96 % control | 90 % control | 78 % control | 52 % control | 22 % control |  |  |
| Nc1nc[nH]n1 [Formula 3-AT, 3-amino-1,2,4-triazole] |  |  |  |  |  |  |  |  |  |  |  |  |  | growth of recombinant yeast strain with 100 mM 3-AT (in words) ([1]; #102 strain, 100 mM 3-AT): neither recombinant yeast strain could grow; growth of recombinant yeast strain with 100 mM 3-AT (in words) ([4]; 100 mM 3-AT): neither recombinant yeast strain could grow; concentration of 3-AT wherein the recombinant yeast strain grows in a reporter gene (histidine synthase)-dependent manner ([4]; histidine defective SD medium): 1 to 10 mM; concentration of 3-AT wherein the recombinant yeast strain grows in a reporter gene (histidine synthase)-dependent manner [5]: 1 to 10 mM |
| O=C(N/N=C/c1ccc([N+](=O)[O-])o1)c1ccccc1Br [Formula [IV], 5-nitro-2-furaldehyde-2-brombenzoylhydrazne] | specifically suppressed #1022 strain in a dose-dependent manner | 99 % control | 99 % control | 36 % control | 102 % control | 102 % control | 98 % control |  |  |  |  |  |  | Suppression (% control) of growth of yeast strain, #102 strain [1, 9]: −2 % control; Suppression (% control) of growth of yeast strain, VT strain [2, 9]: 63 % control |
| B1 |  |  |  |  |  |  |  |  |  |  |  |  | inhibited degranulation in a concentration dependent manner |  |
| B2 |  |  |  |  |  |  |  |  |  |  |  |  | inhibited degranulation in a concentration dependent manner |  |

From patent publication US20030143633A1, “Factors participating in degranulation of mast cells, dnas encoding the same, method of screening of these factors and the inhibitors” (priority 2000, published 2003)
